According to patent publication US12310975B2, “Modulators of BCL6 proteolysis and associated methods of use” (Arvinas Operations, Inc., priority 2019, dated 2025):

Target: BCL6 (Homo sapiens (Human), UniProt P41182)
Experiment: Immunofluorescence high content imaging of BCL6 degradation in T47D cells
Assay type: cell-based
Conditions: for Dmax: T47D
In short: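 Read-out is BCL6 immunofluorescence quantified by high-content imaging (10×, 4 fields per well) of T47D breast cancer cells. Cells were exposed for 3 days to degrader in an 11-point, 3-fold serial dilution reaching a final top concentration of 0.1 or 1 μM.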

| Structure (SMILES) | IC50 | Dmax |
| --- | --- | --- |
| CNC(=O)COc1cc2cc(Nc3nc(N4CCC(CN5CC6(C5)CN(c5ccc7c(c5)C(=O)N(C5CCC(=O)NC5=O)C7=O)C6)CC4)ncc3Cl)ccc2n(C)c1=O (centres unmarked) [compound 248, 2-((6-((5-chloro-2-(4-((6-(2-(2,6-dioxopiperidin-3-yl)-1,3-dioxoisoindolin-5-yl)-2,6-diazaspiro[3.3]heptan-2-yl)methyl)piperidin-1-yl)pyrimidin-4-yl)amino)-1-methyl-2-oxo-1,2-dihydroquinolin-3-yl)oxy)-N-methylacetamide] | ≥ 100 nM |  |
| Cn1c(=O)c(N2CCC2=O)cc2cc(Nc3nc(N4CCN(CC5CCN(c6ccc7c(c6)C(=O)N(C6CCC(=O)NC6=O)C7=O)CC5)CC4)ncc3Cl)ccc21 (centres unmarked) [compound 249, 5-(4-((4-(5-chloro-4-((1-methyl-2-oxo-3-(2-oxoazetidin-1-yl)-1,2-dihydroquinolin-6-yl)amino)pyrimidin-2-yl)piperazin-1-yl)methyl)piperidin-1-yl)-2-(2,6-dioxopiperidin-3-yl)isoindoline-1,3-dione] | ≥ 100 nM |  |
| CNC(=O)COc1cc2cc(Nc3cc(N4CCN(CC5CCN(c6ccc7c(c6)C(=O)N(C6CCC(=O)NC6=O)C7=O)CC5)CC4)ncc3Cl)ccc2n(C)c1=O (centres unmarked) [compound 253, 2-((6-((5-chloro-2-(4-((1-(2-(2,6-dioxopiperidin-3-yl)-1,3-dioxoisoindolin-5-yl)piperidin-4-yl)methyl)piperazin-1-yl)pyridin-4-yl)amino)-1-methyl-2-oxo-1,2-dihydroquinolin-3-yl)oxy)-N-methylacetamide] |  | ≥ 70% |
| CNC(=O)COc1cc2cc(Nc3nc(N4CCN(CC5CCN(c6ccc7c(c6)C(=O)N(C6CCC(=O)NC6=O)C7=O)CC5)CC4)c(Cl)cc3Cl)ccc2n(C)c1=O (centres unmarked) [compound 254, 2-((6-((3,5-dichloro-6-(4-((1-(2-(2,6-dioxopiperidin-3-yl)-1,3-dioxoisoindolin-5-yl)piperidin-4-yl)methyl)piperazin-1-yl)pyridin-2-yl)amino)-1-methyl-2-oxo-1,2-dihydroquinolin-3-yl)oxy)-N-methylacetamide] | ≥ 100 nM |  |
| CC(=O)COc1cc2cc(Nc3nc(N4CCN(C(C)(C)C5CCN(c6ccc7c(c6)C(=O)N(C6CCC(=O)NC6=O)C7=O)CC5)CC4)ncc3Cl)ccc2n(C)c1=O (centres unmarked) [compound 257, 5-(4-(2-(4-(5-chloro-4-((1-methyl-2-oxo-3-(2-oxopropoxy)-1,2-dihydroquinolin-6-yl)amino)pyrimidin-2-yl)piperazin-1-yl)propan-2-yl)piperidin-1-yl)-2-(2,6-dioxopiperidin-3-yl)isoindoline-1,3-dione] | 10 to 50 nM | ≥ 70% |
| CN1CC[C@@H](Oc2cc3cc(Nc4nc(N5CCC(CN6CCN(c7ccc8c(c7)C(=O)N(C7CCC(=O)NC7=O)C8=O)CC6)CC5)ncc4Cl)ccc3n(C)c2=O)C1=O (stereo partly drawn) [compound 258, 5-(4-((1-(5-chloro-4-((1-methyl-3-(((R)-1-methyl-2-oxopyrrolidin-3-yl)oxy)-2-oxo-1,2-dihydroquinolin-6-yl)amino)pyrimidin-2-yl)piperidin-4-yl)methyl)piperazin-1-yl)-2-(2,6-dioxopiperidin-3-yl)isoindoline-1,3-dione] | ≥ 100 nM |  |
| CN1CC[C@H](Oc2cc3cc(Nc4nc(N5CCC(CN6CCN(c7ccc8c(c7)C(=O)N(C7CCC(=O)NC7=O)C8=O)CC6)CC5)ncc4Cl)ccc3n(C)c2=O)C1=O (stereo partly drawn) [compound 259, 5-(4-((1-(5-chloro-4-((1-methyl-3-(((S)-1-methyl-2-oxopyrrolidin-3-yl)oxy)-2-oxo-1,2-dihydroquinolin-6-yl)amino)pyrimidin-2-yl)piperidin-4-yl)methyl)piperazin-1-yl)-2-(2,6-dioxopiperidin-3-yl)isoindoline-1,3-dione] | ≥ 100 nM | < 50% |
| CNC(=O)COc1cc2cc(Nc3nc(N4CCC(CN5CCN(c6cccc7c6C(=O)N(C6CCC(=O)NC6=O)C7=O)CC5)CC4)ncc3Cl)ccc2n(C)c1=O (centres unmarked) [compound 260, 2-((6-((5-chloro-2-(4-((4-(2-(2,6-dioxopiperidin-3-yl)-1,3-dioxoisoindolin-4-yl)piperazin-1-yl)methyl)piperidin-1-yl)pyrimidin-4-yl)amino)-1-methyl-2-oxo-1,2-dihydroquinolin-3-yl)oxy)-N-methylacetamide] | 10 to 50 nM | ≥ 70% |

Now from value to compound:

| IC50 | Dmax | Structure (SMILES) |
| --- | --- | --- |
| < 10 nM | 50 to 70% | CCn1c(=O)c(OCC(=O)NC)cc2cc(Nc3nc(N4CCN(CC5CCN(c6ccc7c(c6)C(=O)N(C6CCC(=O)NC6=O)C7=O)CC5)CC4)ncc3Cl)ccc21 (centres unmarked) [compound 250, 2-((6-((5-chloro-2-(4-((1-(2-(2,6-dioxopiperidin-3-yl)-1,3-dioxoisoindolin-5-yl)piperidin-4-yl)methyl)piperazin-1-yl)pyrimidin-4-yl)amino)-1-ethyl-2-oxo-1,2-dihydroquinolin-3-yl)oxy)-N-methylacetamide] |
| < 10 nM | 50 to 70% | CNC(=O)COc1cc2cc(Nc3nc(N4CCC(CCOC5CN(c6cccc7c6C(=O)N(C6CCC(=O)NC6=O)C7=O)C5)CC4)ncc3Cl)ccc2n(C)c1=O (centres unmarked) [compound 252, 2-((6-((5-chloro-2-(4-(2-((1-(2-(2,6-dioxopiperidin-3-yl)-1,3-dioxoisoindolin-4-yl)azetidin-3-yl)oxy)ethyl)piperidin-1-yl)pyrimidin-4-yl)amino)-1-methyl-2-oxo-1,2-dihydroquinolin-3-yl)oxy)-N-methylacetamide] |
| < 10 nM | < 50% | CNC(=O)COc1cc2cc(Nc3nc(N4CCC(OC5CN(c6cccc7c6C(=O)N(C6CCC(=O)NC6=O)C7=O)C5)CC4)ncc3Cl)ccc2n(C)c1=O (centres unmarked) [compound 255, 2-((6-((5-chloro-2-(4-((1-(2-(2,6-dioxopiperidin-3-yl)-1,3-dioxoisoindolin-4-yl)azetidin-3-yl)oxy)piperidin-1-yl)pyrimidin-4-yl)amino)-1-methyl-2-oxo-1,2-dihydroquinolin-3-yl)oxy)-N-methylacetamide] |
| < 10 nM | 50 to 70% | CNC(=O)COc1cc2cc(Nc3nc(N4CCC(CN5CC6(C5)CN(c5cccc7c5C(=O)N(C5CCC(=O)NC5=O)C7=O)C6)CC4)ncc3Cl)ccc2n(C)c1=O (centres unmarked) [compound 256, 2-((6-((5-chloro-2-(4-((6-(2-(2,6-dioxopiperidin-3-yl)-1,3-dioxoisoindolin-4-yl)-2,6-diazaspiro[3.3]heptan-2-yl)methyl)piperidin-1-yl)pyrimidin-4-yl)amino)-1-methyl-2-oxo-1,2-dihydroquinolin-3-yl)oxy)-N-methylacetamide] |
| < 10 nM | ≥ 70% | CNC(=O)CNc1cc2cc(Nc3nc(N4CCN(CC5CCN(c6ccc7c(c6)C(=O)N(C6CCC(=O)NC6=O)C7=O)CC5)CC4)ncc3Cl)ccc2n(C)c1=O (centres unmarked) [compound 262, 2-((6-((5-chloro-2-(4-((1-(2-(2,6-dioxopiperidin-3-yl)-1,3-dioxoisoindolin-5-yl)piperidin-4-yl)methyl)piperazin-1-yl)pyrimidin-4-yl)amino)-1-methyl-2-oxo-1,2-dihydroquinolin-3-yl)amino)-N-methylacetamide] |
| < 10 nM | ≥ 70% | CNC(=O)COc1cc2cc(Nc3nc(N4CCC(OC5CCN(c6cccc7c6C(=O)N(C6CCC(=O)NC6=O)C7=O)CC5)CC4)ncc3Cl)ccc2n(C)c1=O (centres unmarked) [compound 264, 2-((6-((5-chloro-2-(4-((1-(2-(2,6-dioxopiperidin-3-yl)-1,3-dioxoisoindolin-4-yl)piperidin-4-yl)oxy)piperidin-1-yl)pyrimidin-4-yl)amino)-1-methyl-2-oxo-1,2-dihydroquinolin-3-yl)oxy)-N-methylacetamide] |
